“Also recorded” adds a separate entry of the source. Ends that are not written are not given here.
Key:
Trp-1 = test: qRT-PCR, Trp-1 mRNA; format: cell-based, mouse; details: B16F10, 48 h
Experimental: (§1) A 6-well plate was used to seed B16F10 cells at 1 × 10^5 cells per well prior to overnight incubation in a 5% CO2 humid atmosphere at 37°C. […] Harvesting was conducted via removal of the supernatant, and the cells were rinsed twice in PBS (phosphate-buffered saline). The PureLink™RNA Mini Kit (Invitrogen™, USA) was then used to extract total RNA in line with the guidance of the manufacturer. RNA concentration was assessed at 260 nm with a NanoDrop 2000 UV-Vis spectrophotometer (Thermo Fisher Scientific, Inc.). Oligo-dT primers and a Precision nanoScript II Reverse Transcription Kit (PrimerDesign, Camberley, UK) were used to perform the reverse transcription of 1 µg of total RNA to cDNA in line with the guidance of the manufacturer. MyGo Pro®Real time PCR apparatus (IT-IS International Ltd., Stokesley, UK) was then used to perform the qRT-PCR assays in which 20 µL of PCR reaction contained 1 µL of cDNA, 7 µL of ultrapure water, 1 µL of each primer […], and 10 µL of 2×qPCRBIO SyGreen Mix (PCR Biosystems Ltd, London, UK). […] The relative gene expression level could then be calculated via the cycle threshold (Ct) value, while the role of endogenous control for data normalization was occupied by Gapdh (the housekeeping gene). […]

Tyr = test: qRT-PCR, Tyr mRNA; format: cell-based, mouse; details: B16F10, 48 h
Experimental: as §1

Mitf = test: Western blot, MITF protein; format: cell-based, mouse
Experimental: Following this process, the cells were lysed using NP40 Cell Lysis Buffer with protease inhibitor cocktail supplementation. Next, 12% sodium dodecyl sulfate poly-acrylamide (SDS-PAGE) gel electrophoresis was used to extract equal quantities of protein from each sample, with subsequent transfer to PVD (polyvinylidene fluoride) membranes (Millipore, Bedford, MA, USA). The membrane was blocked overnight with 3% skimmed milk (w/v) in TBST with 0.5% Tween 20 at 4 °C and then washed thrice in TBST. The rabbit polyclonal anti-TYR antibody (dilution 1:1000), anti-TRP-1 antibody (dilution 1:1000), anti-TRP-2 antibody and anti-MITF antibody (dilution 1:1000) obtained from Abcam (USA), were used respectively to detect the TYR, TRP-1, TRP-2, and MITF bands. After thrice washing again in TBST, secondary antibodies (dilution 1:5000) were added to the membranes for 1 h of incubation at room temperature before another triplicate washing in TBST. Enhanced chemiluminescence horseradish peroxidase (HRP) substrates (GeneDirex, Taiwan) were then used in line with the guidance of the manufacturer to detect bound antibodies, while β-actin antibody was employed to evaluate the loading control. Gel band detection was performed using ImageJ software (version 1.54), available at https://imagej.net/ij/. The software facilitated the identification and quantification of protein expression levels.

mushroom TYR = molecular target: T1, mushroom TYR (Agaricus bisporus, UniProt C7FF04); test: Kinetic study, Lineweaver-Burk, mono-phenolase; format: biochemical; details: Km rose, Vmax unchanged
T1 construct: purchased Sigma-Aldrich, Merck T3824
Experimental: It is necessary to determine the type of TYR inhibitory activity which takes place. This can be achieved through a modified version of an assay described by Feng et al.[39]. The process starts by dissolving the peptide VY-9 in deionized water at various concentrations (0, 0.25, 0.5, and 1 mM). Each VY-9 peptide sample at each concentration (35 µL) was combined 15 µL of mushroom TYR (333 U/mL in 50 mM PBS pH 6.8) prior to 5 min of incubation at 25 °C. Subsequently, various concentrations of substrate were introduced, namely 0–2 mM L-tyrosine in the case of mono-phenolase, and 0–12 mM L-DOPA for di-phenolase. These new mixtures underwent further incubation for 30 min at the same temperature of 25 °C. Upon completion, a spectrophotometer was used to measure the absorbance and determine the inhibitory activity at 490 nm. Lineweaver-Burk plots were then used in calculating Km and Vmax, the kinetic parameters. Km is indicated by the intersection point on the X-axis while Vmax is indicated by the intersection point on the Y-axis in the mode of TYR inhibition under examination. Construction of the plots linked the substrate concentration reciprocal on the X-axis and the absorbance reciprocal (at 490 nm) on the Y-axis, to represent the starting rate for the enzymatic reaction. […]

zebrafish embryos = test: Acute toxicity in zebrafish embryos; format: in vivo
Experimental: To perform the test of acute toxicity, a total of 20 fertilized zebrafish embryos were collected at around 4 h after fertilization and added to each well in a 12-well plate. […] Incubation of the plate then took place until 48 h after fertilization at a temperature of 28.5 ± 1 °C. The test solutions were refreshed at 24 h after fertilization to allow the counting and removal of any dead embryos. Following exposure, a stereomicroscope (SZX16, Olympus, Japan) was used to record the embryo morphological effects. Meanwhile, a slightly modified version of a previously described melanin inhibitory assay was carried out[30]. The embryos were then homogenized using a cold lysis buffer (PBS pH 7.4, 1% Triton-X and 1% DMSF). The lysate then underwent 10 min of sonication before being placed in a centrifuge for 5 min at 10,000×g. The pellet was then removed from the centrifuge and dissolved in 200 µL of 1 N NaOH for 1 h at a temperature of 85 °C. This sample was subsequently vortexed and placed in the centrifuge for a further 5 min at 10,000×g. A microplate reader (Spectramax M5, Molecular Devices, USA) was then employed to determine the supernatant absorbance at 490 nm. Melanin content levels could then by calibrated by using the protein amount, and were reported in the form of a percentage compared to the untreated control. In the melanin inhibitory assay, the positive control used was phenylthiourea (PTU) solution (0.0015%).

T1 sequence (C7FF04 2-392): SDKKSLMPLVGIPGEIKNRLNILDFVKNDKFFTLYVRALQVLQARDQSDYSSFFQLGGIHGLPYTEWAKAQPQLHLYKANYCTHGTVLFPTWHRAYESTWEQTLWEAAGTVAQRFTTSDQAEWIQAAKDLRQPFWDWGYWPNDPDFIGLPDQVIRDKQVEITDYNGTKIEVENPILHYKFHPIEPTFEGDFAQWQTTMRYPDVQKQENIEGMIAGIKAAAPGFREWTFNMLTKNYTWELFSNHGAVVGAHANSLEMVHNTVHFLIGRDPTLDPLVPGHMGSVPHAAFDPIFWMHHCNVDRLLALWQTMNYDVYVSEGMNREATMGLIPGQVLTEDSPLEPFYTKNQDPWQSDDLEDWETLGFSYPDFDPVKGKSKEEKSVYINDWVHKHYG

Question: Which “Trp-1 mRNA expression vs control” value (Trp-1; 1.6 µM) does the source give for “VDGYPAAGY [VY-9, Val-Asp-Gly-Tyr-Pro-Ala- Ala-Gly-Tyr]” here?
Answer: Its value is “significantly reduced the expression levels of all measured genes”.

Question: And the “concentration at which Trp-1 mRNA expression was reduced (highest only)” value (Trp-1; vs control)?
Answer: Its value is 1.6 µM.

Question: And the “Tyr mRNA expression vs control” value (Tyr; 1.6 µM)?
Answer: The value was “significantly reduced the expression levels of all measured genes”.

Question: What about the “concentration from which Tyr mRNA expression decreased” value (Tyr; vs control) of the same sequence?
Answer: The value was 0.4 µM.

Question: And the “MITF protein expression vs control” value (Mitf; 1.6 µM, B16F10, 48 h)?
Answer: Its value is “the expression of all proteins decreased compared to the control”.

Question: What about the “concentration from which MITF protein expression decreased” value (Mitf; B16F10, 48 h, western blot) of the same sequence?
Answer: Its value is 0.4 µM.

Question: And the “MITF protein expression vs arbutin” value (Mitf; VY-9 1.6 µM vs arbutin 0.2 mM, 48 h)?
Answer: The value was “only MITF showed a lower expression level”.

Question: And the “inhibition type, mono-phenolase” value (mushroom TYR)?
Answer: Its value is “competitive inhibitor”.

Question: What about the embryo development (zebrafish embryos; 20 µM) of the same sequence?
Answer: Its embryo development is “the development of the embryo was significantly retarded”.

Question: And the “embryo survival / malformation” value (zebrafish embryos; 2–10 µM, vs control)?
Answer: Its value is “no significant influence; also recorded: no significant difference in the rates for survival or malformation”.

Question: What about the “no observed effect concentration (NOEC)” value (zebrafish embryos; zebrafish embryos, to 48 h after fertilization, 28.5 °C) of the same sequence?
Answer: Its value is 10 µM.

From article PMC11681159, “Bee pollen peptides as potent tyrosinase inhibitors with anti-melanogenesis effects in murine b16f10 melanoma cells and zebrafish embryos” (Scientific Reports, 2024)
